Assay results as given in patent publication US8088819B2, “Derivatives of substituted 3-phenyl-1-(phenylthienyl)propan-1-ones and of 3-phenyl-1-(phenylfuranyl) propan-1-ones, preparation and use” (priority 2006, dated 2012).

Assays:
[1] = tested on: target genes of the PPARs; test: Expression of target genes of the PPARs in hepatic and muscle tissues of the db/db mouse, quantitative RT-PCR; type: in vivo; conditions: db/db mice; 50 mpk; 28 days
Method: The efficacy of the compound according to the invention is also evaluated by measuring, in the hepatic and muscle tissues, the expression of genes involved in carbohydrate and lipid metabolism, and the dissipation of energy. The levels of expression of each gene are normalized relative to the level of expression of the reference genes 36B4 in the liver and 18S in the skeletal muscle. The induction factor, i.e. the ratio of the relative signal (induced by the compound according to the invention) to the mean of the relative values of the control group, is then calculated. The higher this factor, the greater the gene expression activating character of the compound. The final result is represented as the mean of the induction values in each experimental group.
Female db/db mice were kept under a cycle of light and darkness of 12/12 hours at a constant temperature of 20±3° C. After acclimation for one week, the mice were weighed and put in groups of 8 animals selected so that the distribution of their body weight and of their plasma lipid levels, determined for the first time before the experiment, are uniform. The test compounds were suspended in carboxymethylcellulose (Sigma C4888) and administered by intragastric force feeding, at a rate of once per day for 28 days at the chosen dose. The animals had free access to water and to food (standard diet). The food intake and the weight gain are recorded throughout the experiment. At the end of the experiment, the animals were anesthetized after fasting for 4 hours, a blood sample was taken using anticoagulant (EDTA), then the mice were weighed and euthanased. The plasma was separated by centrifugation at 3000 rev/min for 20 minutes, and the samples were stored at +4° C.
Samples of hepatic and muscle tissues were taken and frozen immediately in liquid nitrogen and then stored at −80° C. for later analyses. […]
1 μg of total RNA (quantified by UV spectrophotometry) was then reverse-transcribed to complementary DNA by reaction for 1 hour at 37° C. in a total volume of 30 μl containing buffer 1× (Invitrogen), 1.5 mM of DTT, 0.18 mM of dNTPs (Promega), 200 ng of pdN6 (Amersham), 30 U of RNase inhibitor (Promega) and 1 μl of MMLV-RT (Invitrogen).
The quantitative PCR experiments were carried out using the MyiQ Single-Color Real-Time PCR Detection System (Biorad, Marnes-la-Coquette, France) and were performed using the iQ SYBR Green Supermix kit following the supplier's recommendations, in 96-well plates, on 5 μL of diluted reverse-transcription reaction mixture with a hybridization temperature of 60° C. […]
The amount of fluorescence emitted is directly proportional to the amount of complementary DNA present at the start of the reaction and amplified during PCR. […] The relative expression levels of each target are thus determined using the efficacy curves obtained with the points in the range.
The levels of expression of the genes of interest were then normalized, […] relative to the level of expression of the reference gene 36B4 (whose specific primers are: sense primer: 5′-[…]-3′ (SEQ ID No. 19) and antisense primer: 5′-[…]-3′ (SEQ ID No. 20)), and in the muscle tissue relative to the level of expression of the reference gene 18S (whose specific primers are: sense primer: 5′-[…]-3′ (SEQ ID No. 21) and antisense primer: 5′-[…]-3′ (SEQ ID No. 22)). The induction factor was calculated for each sample. […]

C57Bl6 mouse = test: Plasma cholesterol assays and lipoprotein distribution in the C57Bl6 mouse (compounds 4 and 7); type: in vivo; conditions: for lipid profile: C57Bl6 mice treated for 14 days; for plasma HDL-cholesterol levels / plasma total cholesterol levels / plasma HDL-cholesterol level (distribution of cholesterol in the plasma lipoprotein fractions): C57Bl6 mouse, 14 days; for plasma HDL-cholesterol levels / plasma total cholesterol levels: 50 mpk oral; for plasma HDL-cholesterol level (distribution of cholesterol in the plasma lipoprotein fractions): 50 mpk
Method: The effect of the compounds according to the invention was evaluated in vivo in the C57Bl6 mouse after 14 days of treatment by the oral route. At the end of the treatment, the distribution of cholesterol in the various plasma lipoprotein fractions was determined. This was compared with the profile obtained in the control animals (not treated with the compounds according to the invention). The effect of the compounds according to the invention was evaluated in the C57Bl6 mouse by measuring the plasma levels of total cholesterol and of HDL-cholesterol after 14 days of treatment by the oral route. These levels were compared with those obtained with control animals (not treated with the compounds according to the invention). The measured difference provides evidence of the antilipemic effect of the compounds according to the invention.
Female C57Bl6 mice were kept under a cycle of light and darkness of 12/12 hours at a constant temperature of 20±3° C. After acclimation for one week, the mice were weighed and put into groups of 6 animals selected so that the distribution of their body weight, of their plasma lipid levels and of total cholesterol determined for the first time before the experiment, is uniform. The test compounds were suspended in carboxymethylcellulose (Sigma C4888) and administered by intragastric force feeding, at a rate of once per day for 14 days at the chosen dose. The animals had free access to water and to food (standard diet). At the end of the experiment, the animals were anesthetized after fasting for 4 hours, a blood sample was taken using anticoagulant (EDTA), then the mice were weighed and euthanased. The plasma was separated by centrifugation at 3000 rev/min for 20 minutes, and the samples were stored at +4° C.
The plasma concentrations of total cholesterol were measured by enzyme assays (bioMérieux-Lyon-France) following the supplier's recommendations.
The low-density lipoproteins (VLDL and LDL) were precipitated with phosphotungstate. The precipitate was removed by centrifugation. The HDL-cholesterol present in the supernatant was quantified by enzyme assays (bioMérieux-Lyon-France) following the supplier's recommendations.
The various lipid fractions (VLDL, LDL, HDL) of the plasma were separated by gel filtration chromatography. The concentrations of cholesterol were then measured in each fraction by enzyme assays (bioMérieux-Lyon-France) following the supplier's recommendations.

Structure (SMILES) | expression of the gene coding for ACOX1 in the liver [1] | expression of the gene coding for CPT1b in the skeletal muscle [1] | expression of the gene coding for PDK4 in the liver [1] | expression of the gene coding for PDK4 in the skeletal muscle [1] | expression of the gene coding for UCP2 in the skeletal muscle [1] | lipid profile (C57Bl6 mouse) | plasma HDL-cholesterol levels (C57Bl6 mouse) | plasma total cholesterol levels (C57Bl6 mouse) | plasma HDL-cholesterol level (distribution of cholesterol in the plasma lipoprotein fractions) (C57Bl6 mouse)
CC(C)(Oc1ccc(CCC(=O)c2ccc(-c3ccc(C(F)(F)F)cc3)s2)c(Cl)c1Cl)C(=O)O [Compound 2, 2-(2,3-dichloro-4-(3-oxo-3-(5-(4-(trifluoromethyl)phenyl)thien-2-yl)propyl)phenoxy)-2-methylpropanoic acid] | significant increase | significant increase | significant increase | significant increase | significant increase | – | – | – | –
CC(C)(Oc1ccc(CCC(O)c2ccc(-c3ccc(C(F)(F)F)cc3)s2)c(Cl)c1Cl)C(=O)O (stereo not shown) [Compound 4, 2-(2,3-dichloro-4-(3-hydroxy-3-(5-(4-(trifluoromethyl)phenyl)thien-2-yl)propyl)phenoxy)-2-methylpropanoic acid] | – | – | – | – | – | improve | significantly increased | significantly increased | increased
CC(C)(Oc1ccc(CCC(OCc2ccccc2)c2ccc(-c3ccc(C(F)(F)F)cc3)s2)c(Cl)c1Cl)C(=O)O (stereo not shown) [Compound 7, 2-(4-(3-(benzyloxy)-3-(5-(4-(trifluoromethyl)phenyl)thien-2-yl)propyl)-2,3-dichlorophenoxy)-2-methylpropanoic acid] | – | – | – | – | – | improve | nonsignificant increase | significantly increased | increased
